Experimental data from US11708348B2, “Protease inhibitors for treatment of coronavirus infections” (The Scripps Research Institute, priority 2021, dated 2023).
Read-outs that look alike come from different tables or passages of the source.

How the values were obtained:
[1] = test system: hospitalized COVID-19 patients; details: large multi-center trial; cited from earlier work
COVID-2 M^pro protease = COVID-2 M^pro protease (Severe acute respiratory syndrome coronavirus 2, UniProt P0DTD1); details: cell and enzyme assays; cited from earlier work
[2] = test system: SARS-CoV-2 strain USA-WA1/2020; assay: microbe, parasite or virus in culture; assay type: cell-based; details: Severe acute respiratory syndrome coronavirus 2, HeLa-ACE2, 24 h, HeLa-ACE2 cells, SARS-CoV-2 infection, 24 h, read-out: EC50, uM (Hela)

| SMILES | mortality of hospitalized COVID-19 patients [1] | EC50 [2] | also measured |
| --- | --- | --- | --- |
| Cc1cccc(C)c1OCC(=O)N[C@@H](Cc1ccccc1)[C@@H](O)C[C@H](Cc1ccccc1)NC(=O)[C@H](C(C)C)N1CCCNC1=O [lopinavir] | failed to reduce mortality | – | – |
| COCC(=O)[C@H](C[C@@H]1CCNC1=O)NC(=O)[C@H](CC(C)C)NC(=O)c1cc2c(OC)cccc2[nH]1 [methyl ether of PF-00835231] | – | – | fold less active than PF-00835231 (COVID-2 M^pro protease): 3-5 fold |
| CCN(CCO)CCCC(C)Nc1ccnc2cc(Cl)ccc12 (stereo not drawn) [hydroxychloroquine] | failed to reduce mortality | – | – |
| CC(C)C(=O)N1CC2(CC2)C[C@H]1C(=O)N[C@@H](C[C@@H]1CCNC1=O)C(=O)COC(F)(F)F [Compound 704, (S)-5-isobutyryl-N-((S)-3-oxo-1-((S)-2-oxopyrrolidin-3-yl)-4-(trifluoromethoxy)butan-2-yl)-5-azaspiro[2.4]heptane-6-carboxamide] | – | 0.05 to 0.2 µM | – |
| CC(C)(C)NC(=O)C(=O)N1CCC[C@@]1(CC1CC1)C(=O)N[C@@H](C[C@@H]1CCNC1=O)C(=O)COC(F)(F)F [Compound 567, (R)-1-(2-(tert-butylamino)-2-oxoacetyl)-2-(cyclopro-pylmethyl)-N-((S)-3-oxo-1-((S)-2-oxopyrrolidin-3-yl)-4-(trifluoromethoxy)butan-2-yl)pyrrolidine-2-carboxamide] | – | 0.2 to 0.5 µM | – |
| CC[C@@H](O)C(=O)N1C[C@H]2[C@@H]([C@H]1C(=O)N[C@@H](C[C@@H]1CCNC1=O)C(=O)COC(F)(F)F)C2(C)C [Compound 368, (1R,2S,5S)-3-((R)-2-hydroxybutanoyl)-6,6-dimethyl-N-((S)-3-oxo-1-((S)-2-oxopyrrolidin-3-yl)-4-(trifluoromethoxy)butan-2-yl)-3-azabicyclo[3.1.0]= hexane-2-carboxamide] | – | – | EC50 ([2]; class symbols): 0.05 to 0.2 µM |
